{"source": "patent US20160312185A1", "about": "“METHOD FOR PRODUCING MEGAKARYOCYTES AND PLATELETS” (FUNDACIÓN PÚBLICA ANDALUZA PROGRESO Y SALUD, priority 2013, published 2016)", "test_system": "AND1 PSC", "assay": "Megakaryocyte precursor analysis (CD34+ and CD34+CD41a+) in EBs by flow cytometry", "format": "cell-based, human", "conditions": "wild-type AND1 PSCs, TSA 10 and 100 nM from start, day 14, vs DMSO", "procedure": "The emergence of megakaryocyte precursor cells (CD34+ and CD34+ CD41a^+) during EB differentiation stages on days 10, 14 and 17 of differentiation was evaluated. One third of the EBs growing in a 6-well plate were collected and washed once with PBS. Similarly, to evaluate the effect of Trichostatin A (TSA) on differentiation, the EBs were treated with 10 nM or 100 nM of DMSO or TSA for 14 days. In both cases, the EBs were disassociated with collagenase B and disassociation buffer as described previously. A homogenous cell suspension was obtained after washing the EBs with PBS and being carefully resuspended in […] of PBS with 2% FCS and 2 mM of EDTA until no clumps were observed. The disassociated cells were stained with anti-CD34-PECy7 antibodies (Miltenyi Biotec,\nBergisch Gladbach, Germany) and anti-CD41 a-PE antibodies and 7AAD. Living cells identified by 7AAD exclusion were analyzed using a FACSCanto II flow cytometer."}
{"smiles": "CC(/C=C/C(=O)NO)=C\\[C@@H](C)C(=O)c1ccc(N(C)C)cc1", "note": "[Trichostatin A]", "values": [{"measurement": "CD34+ CD41+ megakaryocyte progenitors", "result": "accelerates the emergence of megakaryocyte progenitors"}, {"measurement": "CD34+ CD41+ megakaryocyte progenitors", "setting": "listed as TSA", "result": "increase"}]}
